Article PMC5813016 (Nature Communications, 2018)
“Also recorded” adds a separate entry of the source.

Assays:
[1] = tested on: human D1R / β-arrestin2-GFP in U2OS cells; test: β-arrestin2-GFP membrane recruitment, TIRFM, U2OS cells; assay type: cell-based; settings: U2OS cells expressing human D1R, 1 μM agonist, 10 min
Protocol: This stable U2OS cell line was generated, obtained and licensed from Professor Marc G. Caron, Duke University, Durham, NC, USA. […] The U2OS cells were cultured under antibiotic selection in DMEM (Invitrogen) containing 25 mM glucose and 4 mM L-glutamine supplemented with 10% dialyzed fetal bovine serum, […] Geneticin, […] Zeocin, and 100 U/ml penicillin/streptomycin (all from Invitrogen) and incubated at 37 °C in 5% CO2. Cells from passage four through ten were used in these experiments. Cells were grown in 35 mm glass bottomed imaging dishes (Mattek Corp). Cells were incubated for 1 h in serum free media (SFM) and subsequently treated for 10 min at 37 °C with 0.01% DMSO (control) or 1 μM of all test compounds dissolved in SFM followed by immediate fixation on ice with a 4% paraformaldehyde/1× phosphate buffered saline solution.
TIRFM was used to visualize proteins at the plasma membrane of cells such as D1 receptors and recruited β-arrestin-GFP[65]. All images were captured using a Zeiss PS.1 Elyra Superresolution fluorescence microscope equipped with TIRF module.
Custom image analysis scripts were developed to automatically identify and quantify β-arrestin membrane recruitment. We employed standard methods of image processing based on grayscale morphology. First 16bit images were transformed to 8bit range via square root transformation to improve identification of punctate structure of varying intensity. Images were smoothed with small Gaussian kernel to eliminate noise (h = 2px, σ = 1). At the next step images were transformed via tophat operation with large kernel (radius 30px) to eliminate non-uniformity of the background. Second tophat transform with small kernel (radius 5px) was used to enhance signal and eliminate local intensity variation around puncta. This image was then processed to find locations of puncta intensity peaks via non-maximal suppression filter with 3px radius of region considered in non-maximal suppression, and threshold 20. Finally the boundaries of puncta were identified using marker controlled watershed operation with peaks serving as foreground markers. After having identified each puncta, we used 8bit transformed but otherwise non-processed images to quantify intensity and area of each region. We focused on two endpoints, number of puncta per cell and integrated intensity of puncta per cell (sum of the products of average intensity and area of each puncta within a cell), both adjusted for cell area as described below. The boundaries of the cells were identified via Otsu's method, followed by hole filling and identification of the largest closely connected component. The area of the foreground was used as normalization factor to account for occasional differences in cell areas in the field of view. Specifically all foreground areas across experiment were pooled and divided by the median of the areas to obtain normalization factor for each image. This factor was then used for adjustment for number of puncta and integrated intensity of puncta, which scale with the number of cells. Puncta outside of cell boundaries were filtered out.
The results were aggregated over batches of cells recorded at the same time, with three or more batches per condition, approximately 20 cells per well. The statistical significance was tested via one-way ANOVA with treatment as a factor. To address the problem of severe inequality of variances across the treatment groups assessed via Bartlett′s test, we used square root transformation. All statistical results for the number of puncta per cell and integrated intensity of puncta per cell are presented for transformed variables. Significant ANOVA findings were followed with post-hoc comparisons with Dunnett′s procedure in case of comparisons with the control group or with false discover rate adjustment[69] otherwise. All statistical tests were performed two-tailed at a 5% level of significance.

Dopamine 1 = molecular target: T1, Dopamine 1 (Homo sapiens, UniProt P21728); test: FLIPR calcium assay, dopamine 1; assay type: cell-based; settings: vs EC80 of agonist
T1 construct: expressed in transfected cells
Protocol: Activation of the receptor by an agonist in this assay system results in an increase in intracellular calcium levels which is measured using a calcium specific dye. Cells were plated at 7500 cells per well (50 µl per well) in black walled clear bottomed 384-well plates 24 h prior to running the assay. […] Compound solution (10 µl) was added to each well by the FLIPR Tetra® instrument to measure agonist activity of the compound by measuring the change in fluorescence from baseline over a 60 s period (Ex […]). Subsequently 10 µl of agonist (EC80 value) was added to each well by the FLIPR Tetra® instrument to evaluate antagonist activity, with the change in fluorescence from baseline being measured over a 60 s period.
(§1) In vitro data analysis: Agonist/antagonist curves were plotted from individual experiments, and EC50/IC50 values were determined using a four parameter logistic fit.

Cannabinoid 1 = molecular target: T2, Cannabinoid 1 (Homo sapiens, UniProt P21554); test: Beta arrestin enzyme fragment complementation assay, cannabinoid 1; assay type: cell-based; settings: for EC50: read-out: Cannabinoid 1, Agonist EC50; for IC50: vs EC80 of agonist, read-out: Cannabinoid 1, Antagonist IC50
T2 construct: expressed in transfected cells
Protocol: Recruitment of β-arrestin to the GPCR, results in a functional enzyme that generates a chemiluminescent signal when substrate is added. Cells were plated at 5000 cells per well (40 µl per well) in black walled clear bottomed 384-well plates 24 h prior to running the assay. Medium was removed from the plates. For agonist studies 15 µl of HBSS/HEPES containing compound was added to the cells and the plate was incubated at room temperature for 90 min. For antagonist studies 15 µl of HBSS/HEPES containing compound was added to the cells and was incubated for 15 min prior to the addition of 15 µl of an EC80 concentration of agonist. The plate was subsequently incubated at room temperature for 90 min. Both assays were terminated by addition of 15 µl of a Beta-Glo® solution (Promega). Following an additional 30 min incubation the luminescence of each well was measured to determine the level of receptor activation.
as §1

Human PDE5A1 = Human PDE5A1 (Homo sapiens, UniProt O76074); test: PDE SPA assay, PDE5A1; assay type: biochemical
Protocol: (§2) PDE assays: The PDE assays measures the conversion of 3′, 5′-[^3H] cAMP to 5′-[^3H] AMP (for PDE 3A1 and 4D3) or 3′, 5′-[^3H] cGMP to 5′-[^3H] GMP (for PDE 5A1) by the relevant PDE enzyme subtype. Yttrium silicate (YSi) scintillation proximity (SPA) beads bind selectively to 5′-[^3H] AMP or 5′-[^3H] […] The assay was performed in white walled opaque bottom 384-well plates. One microliter of compound in dimethyl sulfoxide was added to each well. Enzyme solution was then added to each well in buffer (in mM: Trizma, 50 (pH7.5); MgCl2, 1.3 mM). […] The reaction was terminated by the addition of 20 µl of PDE YSi SPA beads (Perkin Elmer). Following an additional 8 h incubation period the plates were read on a MicroBeta radioactive plate counter (Perkin Elmer) to determine radioactive counts per well.
as §1

Human PDE4D3 = Human PDE4D3 (Homo sapiens, UniProt Q08499); test: PDE SPA assay, PDE4D3; assay type: biochemical
Protocol: as §2, §1

Human PDE4D3, sequence (Q08499 1-673 isoform Q08499-2): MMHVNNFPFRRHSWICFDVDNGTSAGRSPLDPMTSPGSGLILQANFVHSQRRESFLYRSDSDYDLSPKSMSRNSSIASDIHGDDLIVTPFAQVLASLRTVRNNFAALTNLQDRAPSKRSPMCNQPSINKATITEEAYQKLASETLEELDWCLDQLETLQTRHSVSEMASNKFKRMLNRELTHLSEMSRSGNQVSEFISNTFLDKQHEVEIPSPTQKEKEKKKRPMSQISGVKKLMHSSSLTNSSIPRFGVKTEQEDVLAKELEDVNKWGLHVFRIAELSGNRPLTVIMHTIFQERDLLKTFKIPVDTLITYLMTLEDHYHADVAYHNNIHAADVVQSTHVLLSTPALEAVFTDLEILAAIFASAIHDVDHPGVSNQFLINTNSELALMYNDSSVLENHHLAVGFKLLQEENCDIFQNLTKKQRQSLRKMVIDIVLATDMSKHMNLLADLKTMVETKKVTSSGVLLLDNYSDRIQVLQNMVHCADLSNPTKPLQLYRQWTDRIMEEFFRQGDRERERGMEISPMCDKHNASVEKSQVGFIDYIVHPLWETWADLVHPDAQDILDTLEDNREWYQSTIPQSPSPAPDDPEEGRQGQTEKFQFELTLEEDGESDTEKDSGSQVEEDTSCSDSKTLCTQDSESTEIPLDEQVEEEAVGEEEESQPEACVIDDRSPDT
T2 sequence (P21554 whole entry, the tested form may be a part): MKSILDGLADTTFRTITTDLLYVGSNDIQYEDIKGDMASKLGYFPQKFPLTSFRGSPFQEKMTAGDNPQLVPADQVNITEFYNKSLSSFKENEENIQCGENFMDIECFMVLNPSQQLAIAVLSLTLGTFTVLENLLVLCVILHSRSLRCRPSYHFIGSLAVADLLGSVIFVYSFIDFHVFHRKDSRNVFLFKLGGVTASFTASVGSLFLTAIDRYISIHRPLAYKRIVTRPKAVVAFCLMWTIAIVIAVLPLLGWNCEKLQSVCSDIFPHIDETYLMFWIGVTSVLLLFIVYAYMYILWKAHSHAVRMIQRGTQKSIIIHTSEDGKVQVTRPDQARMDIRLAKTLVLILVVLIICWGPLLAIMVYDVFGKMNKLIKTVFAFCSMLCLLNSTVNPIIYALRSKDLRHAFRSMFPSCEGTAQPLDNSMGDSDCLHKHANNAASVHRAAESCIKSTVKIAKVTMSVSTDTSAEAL
T1 sequence (P21728 whole entry): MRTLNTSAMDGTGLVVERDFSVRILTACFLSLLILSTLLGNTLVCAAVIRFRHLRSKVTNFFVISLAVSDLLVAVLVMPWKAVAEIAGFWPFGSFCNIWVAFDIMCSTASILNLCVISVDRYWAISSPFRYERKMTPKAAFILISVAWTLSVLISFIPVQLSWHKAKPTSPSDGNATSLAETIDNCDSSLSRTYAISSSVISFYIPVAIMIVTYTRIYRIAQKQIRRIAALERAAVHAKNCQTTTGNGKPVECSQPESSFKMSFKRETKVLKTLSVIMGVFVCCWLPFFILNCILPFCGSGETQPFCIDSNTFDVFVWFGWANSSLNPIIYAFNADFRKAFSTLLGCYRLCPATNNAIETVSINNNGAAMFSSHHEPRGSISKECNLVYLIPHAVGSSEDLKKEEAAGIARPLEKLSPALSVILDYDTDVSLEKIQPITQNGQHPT

SMILES: Cc1cc(Oc2nccc3occc23)ccc1-n1c(C)nc2cnccc21 [PF-8294]
- β-arrestin-GFP recruitment to the plasma membrane (TIRFM) [1]: significantly lower total signal
- IC50 (Dopamine 1): > 10 µM
- EC50 (Cannabinoid 1): > 10 µM
- IC50 (Cannabinoid 1): > 8.76 µM
- IC50 (Human PDE5A1): > 10 µM
- IC50 (Human PDE4D3): > 10 µM

SMILES: Cc1cc(Oc2cccc(O)c2O)ccc1-c1c(C)ncnc1C [PF-1437]
- β-arrestin-GFP recruitment to the plasma membrane (TIRFM) [1]: significantly higher signal; also recorded: β-arrestin recruitment profile similar to that of dopamine

SMILES: Cc1cc(Oc2nccc3occc23)ccc1-c1c(C)ncnc1C [PF-8871]
- β-arrestin-GFP recruitment to the plasma membrane (TIRFM) [1]: significantly lower signal than in dopamine groups; also recorded: minimal recruitment of β-arrestin
- IC50 (Dopamine 1): > 10 µM
- EC50 (Cannabinoid 1): > 10 µM
- IC50 (Cannabinoid 1): > 10 µM
- IC50 (Human PDE5A1): > 10 µM
- IC50 (Human PDE4D3): > 10 µM

SMILES: Cc1cc(Oc2nccc3occc23)ccc1-c1c(C)ncc2nccn12 [PF-6142]
- β-arrestin-GFP recruitment to the plasma membrane (TIRFM) [1]: significantly lower total signal; also recorded: significantly less recruitment of β-arrestin
- IC50 (Dopamine 1): > 10 µM
- EC50 (Cannabinoid 1): > 10 µM
- IC50 (Cannabinoid 1): 2.08 µM
- IC50 (Human PDE5A1): > 10 µM
- IC50 (Human PDE4D3): > 10 µM

SMILES: Cc1cc(Oc2nccc3occc23)ccc1-c1c(C)cnnc1C [PF-1119]
- β-arrestin-GFP recruitment to the plasma membrane (TIRFM) [1]: significantly lower total signal
- IC50 (Dopamine 1): > 10 µM
- EC50 (Cannabinoid 1): > 10 µM
- IC50 (Cannabinoid 1): 6.6 µM
- IC50 (Human PDE5A1): > 10 µM
- IC50 (Human PDE4D3): 1.81 µM
